Consider twelve compounds from PubChem BioAssay (NCI).

Among the test systems are A549 NSCLC; BT-549 breast; CAKI-1 renal; HL-60(TB) leukemia; HOP-92 NSCLC; IGROV1 ovarian; K-562 leukemia; MDA-MB-435; MOLT-4 leukemia; NCI-H226 lung; OVCAR-3 ovarian; OVCAR-4 ovarian; SF-268 CNS; SF-295 CNS; SK-OV-3 ovarian; TK-10 renal; U251 CNS; UACC-257 melanoma; HCC-2998 colon; SNB-75 CNS.
Common to all, as to test: inhibition of tumour cell growth, NCI panel, 48 h

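Interpolation was linear, between the two tested concentrations surrounding the appropriate level; five concentrations were tested over 48 hours in 96-well plates. TGI is the concentration that stops growth completely.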

Consider `CC(=O)O[C@H]1C(=O)[C@@]2(C)[C@H]([C@H](OC(=O)c3cccc(C(F)(F)F)c3)[C@]3(O)C[C@H](OC(=O)[C@H](O)[C@@H](NC(=O)c4ccccc4)c4ccccc4)C(C)=C1C3(C)C)[C@]1(OC(C)=O)CO[C@@H]1C[C@@H]2O`, for which the TGI is more than 25 µM in the assay on A549 NSCLC; more than 15.5 µM with BT-549 breast; more than 25 µM in the assay on CAKI-1 renal; less than 0.0025 µM in the assay on HL-60(TB) leukemia; 15.1 µM in the assay on HOP-92 NSCLC; more than 23 µM in the assay on IGROV1 ovarian. Also, the TGI is 4.85 µM with K-562 leukemia; less than 0.0025 µM with MDA-MB-435; 3.57 µM in the assay with MOLT-4 leukemia; 11.6 µM in the assay with NCI-H226 lung; 8.03 µM with OVCAR-3 ovarian; more than 18.4 µM in the assay on OVCAR-4 ovarian. For the same compound, the TGI in the assay with SF-268 CNS was more than 25 µM; in the assay on SF-295 CNS it was 13.3 µM; in the assay with SK-OV-3 ovarian, more than 25 µM; in the assay on TK-10 renal, 8.88 µM; in the assay on U251 CNS it was 0.0196 µM; with UACC-257 melanoma it was 8.27 µM.

As to `Oc1ccccc1/C=N/Nc1nc(N/N=C/c2ccccc2O)nc(N/N=C/c2ccccc2O)n1`, the TGI in the assay with A549 NSCLC was more than 100 µM; with BT-549 breast it was more than 100 µM; in the assay on CAKI-1 renal, more than 100 µM; with HCC-2998 colon, more than 100 µM; in the assay on HL-60(TB) leukemia, more than 100 µM; in the assay with HOP-92 NSCLC, 81.7 µM. Besides, the TGI in the assay with IGROV1 ovarian, in the assay on K-562 leukemia, in the assay with MDA-MB-435, in the assay on MOLT-4 leukemia, in the assay on NCI-H226 lung and with OVCAR-3 ovarian was more than 100 µM each time. Further, the TGI in the assay with OVCAR-4 ovarian, in the assay with SF-268 CNS, in the assay with SF-295 CNS, in the assay on SK-OV-3 ovarian, with TK-10 renal and with U251 CNS was more than 100 µM each time. Besides, in the assay with UACC-257 melanoma, the TGI was more than 100 µM.

`CC(C)=NN/C(=N\S(=O)(=O)c1ccc(C)cc1)Nc1ccc(Cl)cc1`: the TGI in the assay with A549 NSCLC, with BT-549 breast, in the assay with CAKI-1 renal, in the assay with HL-60(TB) leukemia, with HOP-92 NSCLC and in the assay on IGROV1 ovarian was more than 100 µM throughout. The TGI in the assay on K-562 leukemia, in the assay with MDA-MB-435, with MOLT-4 leukemia, in the assay on NCI-H226 lung, with OVCAR-3 ovarian and in the assay with OVCAR-4 ovarian was more than 100 µM each time. For the same compound, the TGI with SF-268 CNS, with SF-295 CNS, with TK-10 renal, with U251 CNS and in the assay with UACC-257 melanoma was more than 100 µM each time.

With `N#Cc1c(O)c(N=Nc2ccccc2F)c(=O)n2c1[nH]c1ccccc12`, the TGI is more than 100 µM in the assay on A549 NSCLC; more than 100 µM in the assay with BT-549 breast; more than 100 µM with HCC-2998 colon; more than 100 µM with HL-60(TB) leukemia; 60.3 µM in the assay with HOP-92 NSCLC; more than 100 µM with IGROV1 ovarian. Besides, the TGI in the assay with K-562 leukemia, with MDA-MB-435, in the assay with NCI-H226 lung, in the assay on OVCAR-3 ovarian, in the assay on OVCAR-4 ovarian and with SF-268 CNS was more than 100 µM in each case. In addition, the TGI in the assay on SF-295 CNS, in the assay on SK-OV-3 ovarian, with SNB-75 CNS, with TK-10 renal, with U251 CNS and with UACC-257 melanoma was more than 100 µM throughout.

On to `O=S1CCS(=O)CCS(=O)CC1` (configuration not stated), for which the TGI with A549 NSCLC, in the assay on BT-549 breast, with HCC-2998 colon, in the assay on HL-60(TB) leukemia, in the assay on HOP-92 NSCLC and in the assay on IGROV1 ovarian was more than 100 µM in each case. Also, the TGI in the assay on K-562 leukemia, with MDA-MB-435, in the assay with MOLT-4 leukemia, with OVCAR-3 ovarian, with OVCAR-4 ovarian and in the assay with SF-268 CNS was more than 100 µM throughout. The TGI in the assay with SF-295 CNS, in the assay on SK-OV-3 ovarian, in the assay on SNB-75 CNS, in the assay with TK-10 renal, in the assay with U251 CNS and with UACC-257 melanoma was more than 100 µM throughout.

For `N=C(c1ccc2ccccc2c1)c1ccccc1Cc1ccccc1`, the TGI is more than 100 µM with A549 NSCLC; more than 100 µM in the assay with BT-549 breast; more than 100 µM with CAKI-1 renal; more than 100 µM in the assay with HCC-2998 colon; 55.1 µM in the assay with HL-60(TB) leukemia; more than 100 µM in the assay on HOP-92 NSCLC. Also, the TGI with IGROV1 ovarian was more than 100 µM; in the assay with K-562 leukemia, more than 100 µM; with MDA-MB-435, 80.7 µM; in the assay with MOLT-4 leukemia it was 67.8 µM; with NCI-H226 lung, 98.9 µM; with OVCAR-3 ovarian, 57.3 µM. Moreover, the TGI with OVCAR-4 ovarian, in the assay on SF-295 CNS, in the assay on SK-OV-3 ovarian, in the assay on TK-10 renal, with U251 CNS and in the assay on UACC-257 melanoma was more than 100 µM each time.

As to `Cc1ccc2c(=O)c3cccc(CC(=O)O)c3[nH]c2c1C`, the TGI in the assay on A549 NSCLC, with BT-549 breast, in the assay with CAKI-1 renal, in the assay with HL-60(TB) leukemia, in the assay on HOP-92 NSCLC and in the assay on IGROV1 ovarian was more than 100 µM in each case. In addition, the TGI in the assay with K-562 leukemia, with MDA-MB-435, in the assay on MOLT-4 leukemia, in the assay with NCI-H226 lung, with OVCAR-3 ovarian and in the assay on OVCAR-4 ovarian was more than 100 µM each time. For the same compound, the TGI was 90.5 µM in the assay on SF-268 CNS; more than 100 µM in the assay with SF-295 CNS; more than 100 µM with SK-OV-3 ovarian; more than 100 µM with TK-10 renal; more than 100 µM in the assay with U251 CNS; more than 100 µM in the assay on UACC-257 melanoma.

Take `CC(=O)N1OC(C)CC1Nc1ccc(Br)cc1` (configuration not stated): the TGI is more than 100 µM with A549 NSCLC; more than 100 µM in the assay with BT-549 breast; 22.4 µM in the assay with HCC-2998 colon; more than 100 µM in the assay with HL-60(TB) leukemia; more than 100 µM in the assay with HOP-92 NSCLC; more than 100 µM with IGROV1 ovarian. Moreover, the TGI in the assay with K-562 leukemia, in the assay with MDA-MB-435, in the assay on MOLT-4 leukemia, in the assay on NCI-H226 lung, in the assay on OVCAR-3 ovarian and with SF-268 CNS was more than 100 µM throughout. For the same compound, the TGI in the assay with SF-295 CNS, in the assay with SK-OV-3 ovarian, with TK-10 renal and in the assay with U251 CNS was more than 100 µM throughout.

With `Nc1nc(N)c(NC(=O)CCCO)c(=O)[nH]1`, the TGI in the assay on A549 NSCLC, in the assay with BT-549 breast, in the assay with CAKI-1 renal, in the assay with HCC-2998 colon, with HOP-92 NSCLC and with IGROV1 ovarian was more than 100 µM in each case. Besides, the TGI in the assay with K-562 leukemia, with MDA-MB-435, with MOLT-4 leukemia, with NCI-H226 lung, in the assay with OVCAR-3 ovarian and in the assay on OVCAR-4 ovarian was more than 100 µM in each case. Besides, the TGI with SF-268 CNS, with SF-295 CNS, in the assay on SK-OV-3 ovarian, with SNB-75 CNS, in the assay on TK-10 renal and in the assay with U251 CNS was more than 100 µM each time. The same compound had a TGI in the assay on UACC-257 melanoma of more than 100 µM.

On to `O=C(CC(C(=O)c1cccs1)c1ccsc1)c1cccs1` (configuration not stated), for which the TGI with A549 NSCLC, in the assay with BT-549 breast, with CAKI-1 renal, in the assay on HCC-2998 colon, with HOP-92 NSCLC and in the assay on IGROV1 ovarian was more than 100 µM throughout. Further, the TGI in the assay on K-562 leukemia is more than 100 µM; in the assay on MDA-MB-435 it was 92.4 µM; in the assay with MOLT-4 leukemia, more than 100 µM; in the assay with NCI-H226 lung it was more than 100 µM; in the assay on OVCAR-3 ovarian it was more than 100 µM; with OVCAR-4 ovarian, more than 100 µM. For the same compound, the TGI with SF-268 CNS, with SF-295 CNS, with SK-OV-3 ovarian, with SNB-75 CNS, with TK-10 renal and in the assay on U251 CNS was more than 100 µM throughout. The compound further registered a TGI in the assay on UACC-257 melanoma of more than 100 µM.

With `C=C(C)C1Cc2c(cc(O)c3c(=O)c4c(oc23)C(O)Oc2cc(OC)c(OC)cc2-4)O1` (configuration not stated), the TGI in the assay with A549 NSCLC, in the assay with BT-549 breast, in the assay with CAKI-1 renal, in the assay with HCC-2998 colon, in the assay with HL-60(TB) leukemia and with HOP-92 NSCLC was more than 10 µM throughout. Besides, the TGI in the assay on IGROV1 ovarian, in the assay with K-562 leukemia, with MDA-MB-435, in the assay with MOLT-4 leukemia, with NCI-H226 lung and in the assay with OVCAR-3 ovarian was more than 10 µM throughout. Besides, the TGI in the assay on OVCAR-4 ovarian, in the assay on SF-268 CNS, in the assay with SF-295 CNS, in the assay with TK-10 renal, in the assay with U251 CNS and in the assay on UACC-257 melanoma was more than 10 µM each time.

For `COC(=O)c1sc2ncc3c(c2c1N)CCCCCC3`, the TGI in the assay on A549 NSCLC, with BT-549 breast, in the assay with CAKI-1 renal, in the assay with HCC-2998 colon, in the assay with HOP-92 NSCLC and with IGROV1 ovarian was more than 100 µM each time. The TGI in the assay with K-562 leukemia, in the assay with MDA-MB-435, with MOLT-4 leukemia, in the assay on NCI-H226 lung, in the assay on OVCAR-3 ovarian and in the assay on OVCAR-4 ovarian was more than 100 µM each time. The TGI in the assay on SF-268 CNS, in the assay on SF-295 CNS, with SK-OV-3 ovarian, in the assay with SNB-75 CNS, in the assay with TK-10 renal and in the assay on U251 CNS was more than 100 µM throughout. For the same compound, the TGI in the assay with UACC-257 melanoma is more than 100 µM.
